Source: patent publication US20250101034A1, “COMPOSITIONS USEFUL FOR MODULATING SPLICING” (SKYHAWK THERAPEUTICS, INC., priority 2021, published 2025)

Tests used:
total ATXN3 protein = assay: ATXN3 total protein assay (MSD, SK-N-MC cells); type: cell-based, Human; conditions: 48 hours incubation, read-out: ATXN3 Potency - Protein IC50
Outline: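 SK-N-MC human neuroblastoma cells treated with compound (30 μM to 0.6 nM) for 48 h, then lysed with protease inhibitors. Total ATXN3 measured by MSD sandwich immunoassay (mouse capture, rabbit detection antibodies, anti-rabbit MSD-ST secondary), quantified against recombinant ATXN3 standards.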

[1] = test system: ATXN3 transcripts containing exon 4 (E4E5); assay: ATXN3 quantitative splicing assay (qPCR, SK-N-MC cells); type: cell-based; conditions: Homo sapiens, 24 h treatment, qPCR E4E5 primers/probe, read-out: ATXN3 Potency - Splicing E4E5 IC50
Outline: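 SK-N-MC cells treated 24 h with compound (30 μM to 0.6 nM, 0.3% DMSO) 24 h after plating; lysates reverse-transcribed and analysed by TaqMan qPCR. E4E5 primers/probe detect exon 4–containing transcripts; E8E9 measures total ATXN3, alongside exon 4–skipped transcript detection.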

Q: What does the source list for `Cc1c(CC(N)C2COC2)sc2c(NCc3cccs3)cnnc12` (centres unmarked) [Compound 93, 6-[2-amino-2-(oxetan-3-yl)ethyl]-7-methyl-N-[(thiophen-2-yl)methyl]thieno[3,2-c]pyridazin-4-amine]?
A: IC50 (total ATXN3 protein): 0.501 to 5 µM; IC50 [1]: 5 to 10 µM

Q: Which IC50 (total ATXN3 protein) does the source give for `N[C@@H](CO)Cc1sc2c(NCc3cccs3)cnnc2c1Br` [Compound 94, (2R)-2-amino-3-(7-bromo-4-{[(thiophen-2-yl)methyl]amino}thieno[3,2-c]pyridazin-6-yl)propan-1-ol] here?
A: 0.101 to 0.5 µM

Q: What about the IC50 [1] of the same compound?
A: 0.101 to 0.5 µM

Q: With `N[C@@H](CO)Cc1sc2c(NCc3ccco3)cnnc2c1Br` [Compound 95, (2R)-2-amino-3-(7-bromo-4-{[(furan-2-yl)methyl]amino}thieno[3,2-c]pyridazin-6-yl)propan-1-ol] as the compound, how does the IC50 (total ATXN3 protein) read?
A: 0.101 to 0.5 µM

Q: What about the IC50 [1] of the same compound?
A: 0.501 to 5 µM

Q: What does the source list for `N[C@@H](CO)Cc1sc2c(NCc3ccco3)cnnc2c1Cl` [Compound 96, (2R)-2-amino-3-(7-chloro-4-{[(furan-2-yl)methyl]amino}thieno[3,2-c]pyridazin-6-yl)propan-1-ol]?
A: IC50 (total ATXN3 protein): 0.101 to 0.5 µM; IC50 [1]: 0.101 to 0.5 µM

Q: How did the IC50 (total ATXN3 protein) turn out when `Cc1c(C[C@H](C)N)sc2c(NCc3cccs3)c(F)nnc12` [Compound 97, 6-[(2S)-2-aminopropyl]-3-fluoro-7-methyl-N-[(thiophen-2-yl)methyl]thieno[3,2-c]pyridazin-4-amine] was run?
A: 0.101 to 0.5 µM

Q: And the IC50 [1]?
A: 0.101 to 0.5 µM

Q: Which IC50 (total ATXN3 protein) does the source give for `Cc1c(CC#N)sc2c(NCc3cccs3)cnnc12` [Compound 98, 2-{7-methyl-4-[(thiophen-2-ylmethyl)amino]thieno[3,2-c]pyridazin-6-yl}acetonitrile] here?
A: 10 to 40 µM

Q: And the IC50 [1]?
A: 10 to 40 µM

Q: With `Cc1c([C@H](C)[C@@H](C)N)sc2c(NCc3cccs3)cnnc12` [Compound 99, 6-[(2R,3R)-3-aminobutan-2-yl]-7-methyl-N-[(thiophen-2-yl)methyl]thieno[3,2-c]pyridazin-4-amine] as the compound, how does the IC50 (total ATXN3 protein) read?
A: 10 to 40 µM

Q: And the IC50 [1]?
A: 10 to 40 µM

Q: What does the source list for `C[C@H](N)Cc1sc2c(NCc3ccco3)cnnc2c1Br` [Compound 100, 6-[(2S)-2-aminopropyl]-7-bromo-N-[(furan-2-y1)methyl]thieno[3,2-c]pyridazin-4-amine]?
A: IC50 (total ATXN3 protein): 0.101 to 0.5 µM; IC50 [1]: 0.101 to 0.5 µM

Q: Which results are given for `C[C@H](N)Cc1sc2c(NCc3ccco3)cnnc2c1Cl` [Compound 101, 6-[(2S)-2-aminopropyl]-7-chloro-N-[(furan-2-yl)methyl]thieno[3,2-c]pyridazin-4-amine]?
A: IC50 (total ATXN3 protein): 0.101 to 0.5 µM; IC50 [1]: 0.101 to 0.5 µM

Q: `Cc1c([C@@H](C)[C@@H](C)N)sc2c(NCc3cccs3)cnnc12` [Compound 102, 6-[(2S,3R)-3-aminobutan-2-yl]-7-methyl-N-[(thiophen-2-yl)methyl]thieno[3,2-c]pyridazin-4-amine] was tested. Which IC50 (total ATXN3 protein) did it give?
A: 10 to 40 µM

Q: And the IC50 [1]?
A: 10 to 40 µM

Q: `Cc1c(CC(C)CN)sc2c(NCc3cccs3)cnnc12` (centres unmarked) [Compound 104, 6-(3-amino-2-methylpropyl)-7-methyl-N-[(thiophen-2-yl)methyl]thieno[3,2-c]pyridazin-4-amine] was tested. Which IC50 (total ATXN3 protein) did it give?
A: 10 to 40 µM

Q: What about the IC50 [1] of the same compound?
A: 10 to 40 µM

Q: How did the IC50 (total ATXN3 protein) turn out when `Cc1c(CC(N)=O)sc2c(NCc3cccs3)cnnc12` [Compound 105, 2-(7-methyl-4-{[(thiophen-2-yl)methyl]amino}thieno[3,2-c]pyridazin-6-yl)acetamide] was run?
A: 10 to 40 µM

Q: And the IC50 [1]?
A: 10 to 40 µM

Q: How did the IC50 (total ATXN3 protein) turn out when `CC#Cc1c(C[C@H](C)N)sc2c(NCc3cccs3)cnnc12` [Compound 107, 6-[(2S)-2-aminopropyl]-7-(prop-1-yn-1-yl)-N-[(thiophen-2-yl)methyl]thieno[3,2-c]pyridazin-4-amine] was run?
A: 0.101 to 0.5 µM

Q: What about the IC50 [1] of the same compound?
A: 0.101 to 0.5 µM

Q: `Cc1c(C[C@@H](N)[C@H](C)F)sc2c(NCc3cccs3)cnnc12` [Compound 110, 6-[(2R,3S)-2-amino-3-fluorobutyl]-7-methyl-N-[(thiophen-2-yl)methyl]thieno[3,2-c]pyridazin-4-amine] was tested. Which IC50 (total ATXN3 protein) did it give?
A: 0.101 to 0.5 µM

Q: What about the IC50 [1] of the same compound?
A: 0.101 to 0.5 µM

Q: Which IC50 (total ATXN3 protein) does the source give for `Cc1c(C[C@@H](N)[C@@H](C)F)sc2c(NCc3cccs3)cnnc12` [Compound 111, 6-[(2R,3R)-2-amino-3-fluorobutyl]-7-methyl-N-[(thiophen-2-yl)methyl]thieno[3,2-c]pyridazin-4-amine] here?
A: 0.501 to 5 µM

Q: And the IC50 [1]?
A: 0.501 to 5 µM

Q: With `C[C@H](N)Cc1sc2c(N[C@@H](C)c3cccs3)cnnc2c1Br` [Compound 112, 6-[(2S)-2-aminopropyl]-7-bromo-N-[(1S)-1-(thiophen-2-yl)ethyl]thieno[3,2-c]pyridazin-4-amine] as the compound, how does the IC50 (total ATXN3 protein) read?
A: 10 to 40 µM

Q: What about the IC50 [1] of the same compound?
A: 10 to 40 µM

Q: With `C[C@H](N)Cc1sc2c(N[C@H](C)c3cccs3)cnnc2c1Br` [Compound 113, 6-[(2S)-2-aminopropyl]-7-bromo-N-[(1R)-1-(thiophen-2-yl)ethyl]thieno[3,2-c]pyridazin-4-amine] as the compound, how does the IC50 (total ATXN3 protein) read?
A: 10 to 40 µM

Q: What about the IC50 [1] of the same compound?
A: 10 to 40 µM

Q: `Cc1c(CO)sc2c(NCc3cccs3)cnnc12` [Compound 114, (7-methyl-4-{[(thiophen-2-yl)methyl]amino}thieno[3,2-c]pyridazin-6-yl)methanol] was tested. Which IC50 (total ATXN3 protein) did it give?
A: 10 to 40 µM

Q: What about the IC50 [1] of the same compound?
A: 10 to 40 µM

Q: Which results are given for `C#Cc1c(C[C@H](C)N)sc2c(NCc3ccco3)cnnc12` [Compound 115, 6-[(2S)-2-aminopropyl]-7-ethynyl-N-[(furan-2-y1)methyl]thieno[3,2-c]pyridazin-4-amine]?
A: IC50 (total ATXN3 protein): 0.101 to 0.5 µM; IC50 [1]: 1e-05 to 0.1 µM

Q: Which IC50 (total ATXN3 protein) does the source give for `C#Cc1c(C[C@H](C)N)sc2c(NCc3cccs3)cnnc12` [Compound 116, 6-[(2S)-2-aminopropyl]-7-ethynyl-N-[(thiophen-2-yl)methyl]thieno[3,2-c]pyridazin-4-amine] here?
A: 0.101 to 0.5 µM

Q: What about the IC50 [1] of the same compound?
A: 1e-05 to 0.1 µM

Q: Which results are given for `Cc1c(CC(N)CC2(F)CC2)sc2c(NCc3cccs3)cnnc12` (centres unmarked) [Compound 117, 6-[2-amino-3-(1-fluorocyclopropyl)propyl]-7-methyl-N-[(thiophen-2-yl)methyl]thieno[3,2-c]pyridazin-4-amine]?
A: IC50 (total ATXN3 protein): 5 to 10 µM; IC50 [1]: 5 to 10 µM

Q: Which IC50 (total ATXN3 protein) does the source give for `Cc1c(C(F)(F)[C@H](C)N)sc2c(NCc3cccs3)cnnc12` [Compound 125, 6-[(2S)-2-amino-1,1-difluoropropyl]-7-methyl-N-(thiophen-2-ylmethyl)thieno[3,2-c]pyridazin-4-amine] here?
A: 0.501 to 5 µM

Q: What about the IC50 [1] of the same compound?
A: 0.501 to 5 µM

Q: Which results are given for `Cc1c(C[C@@H](N)C[C@H]2CC2(F)F)sc2c(NCc3cccs3)cnnc12` [Compound 127, 6-[(2S)-2-amino-3-[(1S)-2,2-difluorocyclopropyl]propyl]-7-methyl-N-(thiophen-2-ylmethyl)thieno[3,2-c]pyridazin-4-amine]?
A: IC50 (total ATXN3 protein): 10 to 40 µM; IC50 [1]: 10 to 40 µM

Q: Which results are given for `Cc1c(C[C@@H](N)C[C@@H]2CC2(F)F)sc2c(NCc3cccs3)cnnc12` [Compound 128, 6-[(2S)-2-amino-3-[(1R)-2,2-difluorocyclopropyl]propyl]-7-methyl-N-(thiophen-2-ylmethyl)thieno[3,2-c]pyridazin-4-amine]?
A: IC50 (total ATXN3 protein): 10 to 40 µM; IC50 [1]: 10 to 40 µM

Q: With `Cc1c(C[C@H](N)C[C@H]2CC2(F)F)sc2c(NCc3cccs3)cnnc12` [Compound 129, 6-[(2R)-2-amino-3-[(1S)-2,2-difluorocyclopropyl]propyl]-7-methyl-N-(thiophen-2-ylmethyl)thieno[3,2-c]pyridazin-4-amine] as the compound, how does the IC50 (total ATXN3 protein) read?
A: 0.501 to 5 µM

Q: And the IC50 [1]?
A: 5 to 10 µM

Q: Which results are given for `Cc1c(C[C@H](N)C[C@@H]2CC2(F)F)sc2c(NCc3cccs3)cnnc12` [Compound 130, 6-[(2R)-2-amino-3-[(1R)-2,2-difluorocyclopropyl]propyl]-7-methyl-N-(thiophen-2-ylmethyl)thieno[3,2-c]pyridazin-4-amine]?
A: IC50 (total ATXN3 protein): 0.501 to 5 µM; IC50 [1]: 0.501 to 5 µM

Q: What does the source list for `Cc1c(C[C@@H](N)COC2CC2)sc2c(NCc3cccs3)cnnc12` [Compound 131, 6-[(2R)-2-amino-3-cyclopropoxypropyl]-7-methyl-N-[(thiophen-2-yl)methyl]thieno[3,2-c]pyridazin-4-amine]?
A: IC50 (total ATXN3 protein): 5 to 10 µM; IC50 [1]: 0.501 to 5 µM

Q: How did the IC50 (total ATXN3 protein) turn out when `Cc1c(C[C@@H](N)COC(F)(F)F)sc2c(NCc3cccs3)cnnc12` [Compound 132, 6-[(2R)-2-amino-3-(trifluoromethoxy)propyl]-7-methyl-N-[(thiophen-2-yl)methyl]thieno[3,2-c]pyridazin-4-amine] was run?
A: 10 to 40 µM

Q: What about the IC50 [1] of the same compound?
A: 10 to 40 µM

Q: What does the source list for `Cc1c(C[C@@H](N)COC(F)F)sc2c(NCc3cccs3)cnnc12` [Compound 133, 6-[(2R)-2-amino-3-(difluoromethoxy)propyl]-7-methyl-N-[(thiophen-2-y1)methyl]thieno[3,2-c]pyridazin-4-amine]?
A: IC50 (total ATXN3 protein): 0.501 to 5 µM; IC50 [1]: 0.501 to 5 µM

Q: With `C[C@H](F)[C@H](N)Cc1sc2c(NCc3cccs3)cnnc2c1Br` [Compound 135, 6-[(2R,3S)-2-amino-3-fluorobutyl]-7-bromo-N-[(thiophen-2-yl)methyl]thieno[3,2-c]pyridazin-4-amine] as the compound, how does the IC50 (total ATXN3 protein) read?
A: 0.101 to 0.5 µM

Q: What about the IC50 [1] of the same compound?
A: 0.101 to 0.5 µM

Q: Which IC50 (total ATXN3 protein) does the source give for `COC[C@H](N)Cc1sc2c(NCc3cccs3)cnnc2c1Br` [Compound 136, 6-[(2R)-2-amino-3-methoxypropyl]-7-bromo-N-[(thiophen-2-yl)methyl]thieno[3,2-c]pyridazin-4-amine] here?
A: 0.101 to 0.5 µM

Q: What about the IC50 [1] of the same compound?
A: 0.101 to 0.5 µM

Q: Which results are given for `N[C@@H](COC1CC1)Cc1sc2c(NCc3cccs3)cnnc2c1Br` [Compound 137, 6-[(2R)-2-amino-3-cyclopropoxypropyl]-7-bromo-N-[(thiophen-2-yl)methyl]thieno[3,2-c]pyridazin-4-amine]?
A: IC50 (total ATXN3 protein): 0.501 to 5 µM; IC50 [1]: 0.501 to 5 µM

Q: What does the source list for `Cc1c(C[C@@H](N)CCOC(F)F)sc2c(NCc3cccs3)cnnc12` [Compound 139, 6-[(2S)-2-amino-4-(difluoromethoxy)butyl]-7-methyl-N-(thiophen-2-ylmethyl)thieno[3,2-c]pyridazin-4-amine]?
A: IC50 (total ATXN3 protein): 0.501 to 5 µM; IC50 [1]: 0.501 to 5 µM

Q: For `C[C@H](N)C(F)(F)c1sc2c(NCc3cccs3)cnnc2c1Br` [Compound 140, 6-[(2S)-2-amino-1,1-difluoropropyl]-7-bromo-N-[(thiophen-2-yl)methyl]thieno[3,2-c]pyridazin-4-amine], which IC50 (total ATXN3 protein) is on record?
A: 0.501 to 5 µM

Q: What about the IC50 [1] of the same compound?
A: 0.501 to 5 µM
